Results as given in ChEMBL document CHEMBL1145154 (J Med Chem, 2005).
The source made the active and inactive calls. No cut-off for these calls is given here.

Columns and labels:
A2780 = assay: In vitro cytotoxicity for human ovarian tumor A2780 cells; format: functional, cell-based
Salmon testes DNA [1] = assay: Binding affinity towards salmon testes DNA; format: nucleic-acid assay; details: Oncorhynchus gorbuscha
Salmon testes DNA [2] = assay: Binding affinity towards salmon testes DNA; NA=not applicable; format: nucleic-acid assay; details: Oncorhynchus gorbuscha

Compound | IC50 (A2780; Homo sapiens, A2780) [µM] | K (Salmon testes DNA [1]) [M⁻¹] | IC50 (A2780; a2780) [µM] | K (Salmon testes DNA [2])
OCC[N+]1=C2c3ccccc3-c3ccccc3N2CC1 | 11.7 | 20200 |  | 
COc1ccc(C[N+]2=C3c4ccccc4-c4ccccc4N3CC2)cc1 | 1.53 | 28900 |  | 
c1ccc2c(c1)C1=NCCN1c1ccccc1-2 | 1.56 | 25600 |  | 
COc1ccc2c(c[n+](C)c3c4cc5c(cc4ccc23)OCO5)c1OC [CHELERYTHRINE CHLORIDE] | 4.63 | 466000 |  | 
CARBOPLATIN [listing 1 of 2 here] |  |  | 5.22 | 
CARBOPLATIN [listing 2 of 2 here] |  |  |  | inactive
CCCCCCCCCCCC[N+]1=C2c3ccccc3-c3ccccc3N2CC1 | 0.087 | 129000 |  | 
